Reference: patent US20240216369A1, “THE USE OF A SPLICING MODULATOR FOR A TREATMENT SLOWING PROGRESSION OF HUNTINGTON'S DISEASE” (Novartis AG, priority 2019, published 2024)

What was measured:
tHTT = assay: Mutant and total HTT multiplex HTRF assay in Q48 HTT human embryonic stem cell line: tHTT; format: cell-based; details: Q48 HTT hESC, 48 hours
Experimental: (§1) The multiplex assay is performed in human embryonic stem cells (hESCs) which have been derived by Genea Biocells from human blastocysts of HD donors. Cells are plated at a density of 10,000 cells/well into 384-well collagen coated plates and left to adhere for 24 hours, compounds 1 to 82 are then added to cells and incubated for 48 hours (37° C., 5% CO2), cells are then lysed and the contents split into a black 384-well plate.
(§2) The black plates have a combination of HTRF labeled monoclonal antibodies added which recognize discrete areas of the HTT protein, the 2B7-Tb “donor” antibody (0.2 ng/well) recognizes a sequence at the N-terminus of the protein, an MW1-Alexa488 “acceptor 1” antibody (30 ng/well) recognizes an area in the polyQ region, whereas a MAB2166-d2 “acceptor 2” antibody (6 ng/well) recognizes a sequence beyond the polyQ region. The 2B7 antibody was obtained from Coriell (CH02024), the MW1 antibody from Millipore (MABN2427), and the MAB2166 antibody from Millipore (1HU-4C8).
(§3) These detection reagents are incubated with the cell lysate at room temperature for 4-6 hours before having their fluorescence quantified at 615 nm (donor) and 535 nm and 665 nm (acceptor 1 and 2 respectively). The donor/acceptor ratio between these signals indicates the relative quantities of mHTT and tHTT proteins. As shown in the Table 1, compounds 1 to 82 as described therein and in Table 2, had the following pIC50 values.

mHTT = assay: Mutant and total HTT multiplex HTRF assay in Q48 HTT human embryonic stem cell line: mHTT; format: cell-based; details: Q48 HTT hESC, 48 hours
Experimental: as §1, §2, §3

Row | Compound | tHTT pIC50 (tHTT) | Rating (based on mHTT potency) (mHTT) | mHTT pIC50 (mHTT)
1 | CN(c1ccc(-c2cc3ccccc3cc2O)nn1)C1CC(C)(C)NC(C)(C)C1 [Compound 41, 3-(6-(methyl(2,2,6,6-tetramethylpiperidin-4-yl)amino)pyridazin-3-yl)naphthalen-2-ol] | 6.8125 | *** (a pIC50 value between 6.5 and 7.0 is indicated by three stars (***)) | 6.923
2 | Cc1nc2cc(O)c(-c3ccc(N(C)C4CC(C)(C)NC(C)(C)C4)nn3)cc2nc1C [Compound 42, 2,3-dimethyl-7-(6-(methyl(2,2,6,6-tetramethylpiperidin-4-yl)amino)pyridazin-3-yl)quinoxalin-6-ol] | 6.885 | *** (a pIC50 value between 6.5 and 7.0 is indicated by three stars (***)) | 6.92
3 | CNc1ccn(-c2ccc(-c3nnc(N(C)C4CC(C)(C)NC(C)(C)C4)s3)c(O)c2)n1 [Compound 43, 2-(5-(methyl(2,2,6,6-tetramethylpiperidin-4-yl)amino)-1,3,4-thiadiazol-2-yl)-5-(3-(methylamino)-1H-pyrazol-1-yl)phenol] | 6.852 | *** (a pIC50 value between 6.5 and 7.0 is indicated by three stars (***)) | 6.917
4 | CCN1CCC(c2cn3c(=O)cc(-c4ccc5nn(C)cc5c4)nc3c(C)n2)CC1 [Compound 44, 7-(1-ethylpiperidin-4-yl)-9-methyl-2-(2-methyl-2H-indazol-5-yl)-4H-pyrazino[1,2-a]pyrimidin-4-one] | 6.7695 | *** (a pIC50 value between 6.5 and 7.0 is indicated by three stars (***)) | 6.869
5 | CN(c1nnc(-c2c(F)cc(-c3cn[nH]c3)cc2F)s1)C1CC(C)(C)NC(C)(C)C1 [Compound 45, 5-(2,6-difluoro-4-(1H-pyrazol-4-yl)phenyl)-N-methyl-N-(2,2,6,6-tetramethylpiperidin-4-yl)-1,3,4-thiadiazol-2-amine] | 6.7715 | *** (a pIC50 value between 6.5 and 7.0 is indicated by three stars (***)) | 6.861
6 | Cc1cnc2cc(O)c(-c3ccc(N(C)C4CC(C)(C)NC(C)(C)C4)nn3)cc2n1 [Compound 46, 2-methyl-7-(6-(methyl(2,2,6,6-tetramethylpiperidin-4-yl)amino)pyridazin-3-yl)quinoxalin-6-ol] | 6.778 | *** (a pIC50 value between 6.5 and 7.0 is indicated by three stars (***)) | 6.8485
7 | Cc1ccc2cc(-c3ccc(N(C)C4CC(C)(C)NC(C)(C)C4)nn3)c(O)cc2n1 [Compound 47, 2-methyl-6-(6-(methyl(2,2,6,6-tetramethylpiperidin-4-yl)amino)pyridazin-3-yl)quinolin-7-ol] | 6.92 | *** (a pIC50 value between 6.5 and 7.0 is indicated by three stars (***)) | 6.8415
8 | CC1(C)CC(Nc2ccc(-c3cc4cc(C#N)ccc4s3)nn2)CC(C)(C)N1 [Compound 48, 2-(6-(2,2,6,6-tetramethylpiperidin-4-ylamino)pyridazin-3-yl)benzo[b]thiophene-5-carbonitrile] | 6.9 | *** (a pIC50 value between 6.5 and 7.0 is indicated by three stars (***)) | 6.822
9 | CN(c1nnc(-c2ccc(-c3ccn(C)c(=O)c3)cc2O)s1)C1CC(C)(C)NC(C)(C)C1 [Compound 49, 4-(3-hydroxy-4-(5-(methyl(2,2,6,6-tetramethylpiperidin-4-yl)amino)-1,3,4-thiadiazol-2-yl)phenyl)-1-methylpyridin-2(1H)-one] | 6.6665 | *** (a pIC50 value between 6.5 and 7.0 is indicated by three stars (***)) | 6.819
10 | COc1ccnc2cc(-c3ccc(N(C)C4CC(C)(C)NC(C)(C)C4)nn3)c(O)cc12 [Compound 50, 4-methoxy-7-(6-(methyl(2,2,6,6-tetramethylpiperidin-4-yl)amino)pyridazin-3-yl)quinolin-6-ol] | 6.7835 | *** (a pIC50 value between 6.5 and 7.0 is indicated by three stars (***)) | 6.8055
11 | CN(c1ccc(-c2cc3c(C(N)=O)nccc3cc2O)nn1)C1CC(C)(C)NC(C)(C)C1 [Compound 51, 6-hydroxy-7-(6-(methyl(2,2,6,6-tetramethylpiperidin-4-yl)amino)pyridazin-3-yl)isoquinoline-1-carboxamide] | 6.779 | *** (a pIC50 value between 6.5 and 7.0 is indicated by three stars (***)) | 6.801
12 | CN(c1ccc(-c2cc3ccncc3cc2O)nn1)C1CC(C)(C)NC(C)(C)C1 [Compound 52, 6-(6-(methyl(2,2,6,6-tetramethylpiperidin-4-yl)amino)pyridazin-3-yl)isoquinolin-7-ol] | 6.6455 | *** (a pIC50 value between 6.5 and 7.0 is indicated by three stars (***)) | 6.7625
13 | Cc1cc(C2CC2)c2cc(-c3ccc(N(C)C4CC(C)(C)NC(C)(C)C4)nn3)c(O)cc2n1 [Compound 53, 4-cyclopropyl-2-methyl-6-(6-(methyl(2,2,6,6-tetramethylpiperidin-4-yl)amino)pyridazin-3-yl)quinolin-7-ol] | 6.7095 | *** (a pIC50 value between 6.5 and 7.0 is indicated by three stars (***)) | 6.746
14 | Cc1nc2cc(-c3ccc(N(C)C4CC(C)(C)NC(C)(C)C4)nn3)c(O)cc2[nH]1 [Compound 54, 2-methyl-5-(6-(methyl(2,2,6,6-tetramethylpiperidin-4-yl)amino)pyridazin-3-yl)-1H-benzo[d]imidazol-6-ol] | 6.753 | *** (a pIC50 value between 6.5 and 7.0 is indicated by three stars (***)) | 6.728
15 | CN(c1ccc(-c2cc3c(=O)nc[nH]c3cc2O)nn1)C1CC(C)(C)NC(C)(C)C1 [Compound 55, 7-hydroxy-6-(6-(methyl(2,2,6,6-tetramethylpiperidin-4-yl)amino)pyridazin-3-yl)quinazolin-4(1H)-one] | 6.7485 | *** (a pIC50 value between 6.5 and 7.0 is indicated by three stars (***)) | 6.71
16 | CCc1cnc2cc(O)c(-c3ccc(N(C)C4CC(C)(C)NC(C)(C)C4)nn3)cc2c1 [Compound 56, 3-ethyl-6-(6-(methyl(2,2,6,6-tetramethylpiperidin-4-yl)amino)pyridazin-3-yl)quinolin-7-ol] | 6.709 | *** (a pIC50 value between 6.5 and 7.0 is indicated by three stars (***)) | 6.709
17 | COc1ccc2cc(-c3ccc(N(C)C4CC(C)(C)NC(C)(C)C4)nn3)c(O)cc2c1 [Compound 57, 7-methoxy-3-(6-(methyl(2,2,6,6-tetramethylpiperidin-4-yl)amino)pyridazin-3-yl)naphthalen-2-ol] | 6.791 | *** (a pIC50 value between 6.5 and 7.0 is indicated by three stars (***)) | 6.7085
18 | COc1cc(-c2cn[nH]c2)cc(O)c1-c1ccc(N(C)C2CC(C)(C)NC(C)(C)C2)nn1 [Compound 58, 3-methoxy-2-(6-(methyl(2,2,6,6-tetramethylpiperidin-4-yl)amino)pyridazin-3-yl)-5-(1H-pyrazol-4-yl)phenol] | 6.6555 | *** (a pIC50 value between 6.5 and 7.0 is indicated by three stars (***)) | 6.698
19 | Cc1nc(-c2ccc(-c3ccc(N(C)C4CC(C)(C)NC(C)(C)C4)nn3)c(O)c2)c[nH]1 [Compound 59, 2-(6-(methyl(2,2,6,6-tetramethylpiperidin-4-yl)amino)pyridazin-3-yl)-5-(2-methyl-1H-imidazol-4-yl)phenol] | 6.5065 | *** (a pIC50 value between 6.5 and 7.0 is indicated by three stars (***)) | 6.678
20 | Cc1ncc2cc(-c3ccc(N(C)C4CC(C)(C)NC(C)(C)C4)nn3)c(O)cc2n1 [Compound 60, 2-methyl-6-(6-(methyl(2,2,6,6-tetramethylpiperidin-4-yl)amino)pyridazin-3-yl)quinazolin-7-ol] | 6.7 | *** (a pIC50 value between 6.5 and 7.0 is indicated by three stars (***)) | 6.6725
21 | CN(c1ccc(-c2ccc(C3=CCNCC3)cc2O)nn1)C1CC(C)(C)NC(C)(C)C1 [Compound 61, 2-(6-(methyl(2,2,6,6-tetramethylpiperidin-4-yl)amino)pyridazin-3-yl)-5-(1,2,3,6-tetrahydropyridin-4-yl)phenol] | 6.659 | *** (a pIC50 value between 6.5 and 7.0 is indicated by three stars (***)) | 6.661
22 | COc1cc(-c2sc(C)nc2C)ccc1-c1nnc(N(C)C2CC(C)(C)NC(C)(C)C2)s1 [Compound 62, 5-(4-(2,4-dimethylthiazol-5-yl)-2-methoxyphenyl)-N-methyl-N-(2,2,6,6-tetramethylpiperidin-4-yl)-1,3,4-thiadiazol-2-amine] | 6.6405 | *** (a pIC50 value between 6.5 and 7.0 is indicated by three stars (***)) | 6.6555
